How the values were obtained:
[1] = tested on: SORHA (johnsongrass (seedling)); experiment: Pre-emergence herbicidal activity, warm season; assay type: in vivo, Sorghum halepense; conditions: GR80 = lowest tested rate (300, 100, 30, 10 g/ha) with 80% or greater inhibition; approx. 14 days after treating; 30/21° C.
Procedure, shortened: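 GR80 values derive from percent inhibition relative to untreated plants, read roughly 14 days after sowing and pre-emergence soil-surface treatment (compound in 50:50 acetone/water; rates typically 10, 30, 100, 300 g/ha). Warm-season weeds grew at 30/21° C day/night, cool-season ones at 18/13° C; an asterisk marks activity without reaching 80% at the highest rate.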

POLCO (wild buckwheat) = experiment: Pre-emergence herbicidal activity, cool season; assay type: in vivo, Polygonum convolvulus; conditions: lowest tested rate with 80% or greater inhibition; rates 300, 100, 30, 10 g/ha; about 14 days
Procedure, shortened: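 Seeds were sown in sterilized, fertilized topsoil, covered, and the soil surface was sprayed with compound in 50:50 acetone/water at 300, 100, 30 and 10 g/ha. Pots were held at 30/21 °C day/night (PANMI, DIGSA) or 18/13 °C (ALOMY, POLCO). GR80 came from percent inhibition versus untreated plants at about 14 days.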

DIGSA (large crabgrass) = experiment: Pre-plant incorporated (PPI) herbicidal activity, warm season; assay type: in vivo, Digitaria sanguinalis; conditions: for PPI activity GR80, DIGSA: pre-plant incorporated, lowest tested rate with 80% or greater inhibition, about 14 days
Description: (§1) In another set of tests, the pre-plant incorporated (PPI) activity of compounds of this invention was evaluated on the same species as for the pre-emergence tests described above. In the PPI tests the following procedure, designed to simulate PPI application, was used.
(§2) A pre-prepared topsoil mixture (described above) was placed in a pot and compacted to a depth of 1.0 to 1.25 cm from the top of the pot. Seeds of each of several monocotyledonous and dicotyledonous annual plant species were placed on top of the soil. A sufficient quantity of soil to cover the seeds and level fill the pot was weighed into an open container. A known amount of the test compound was dissolved or suspended in an organic solvent and applied by spraying to this cover soil. The cover soil was thoroughly mixed to distribute the test compound throughout the cover soil, and was then applied as a cover layer over the seeds. Untreated soil was used as a cover layer for control pots. After treatment the plants were placed in a greenhouse where they received 0.64 cm of overhead irrigation. All subsequent watering consisted of a light overhead mist and/or subirrigation as needed for germination and growth. Tables 9 and 10 below relate to warm season plant species which were placed after pre-emergence treatment in a greenhouse with a 30/21° C. day/night temperature regime. Tables 11 and 12 below relates to cool season plant species placed after pre-emergence treatment in a greenhouse or growth chamber with an 18/13° C. day/night temperature regime. Only the compounds of Examples 1, 6, 8, 11, 13 and 15-20 were included in PPI tests.
(§3) Approximately 14 days after planting and treating, the plants were observed and herbicidal efficacy recorded as percent inhibition by comparison with untreated plants.

SASKR (russian thistle) = experiment: Pre-plant incorporated (PPI) herbicidal activity, cool season; assay type: in vivo, Salsola kali; conditions: for PPI activity GR80, SASKR: pre-plant incorporated, lowest tested rate with 80% or greater inhibition, about 14 days
Description: as §1, §2, §3

[2] = tested on: AGRRE (quackgrass (seedling)); experiment: as above; assay type: in vivo, Elymus repens; conditions: for PPI activity GR80, AGRRE: pre-plant incorporated, lowest tested rate with 80% or greater inhibition, about 14 days
Description: as §1, §2, §3

barley (HORVX) = experiment: Selectivity test, PPI, cool season crop; assay type: in vivo, Hordeunm vulgare; conditions: PPI application
Description: as §2, §3
Additional pre-emergence and PPI tests were conducted by the procedures described above, on warm and cool season weed species in the presence of crop species, to assess herbicidal selectivity. Crop species included in warm season tests were corn (Zea mays, ZEAMX), rice (Oryza sativa, ORYSA) and soybean (Glycine max, GLYMX). Crop species included in cool season tests were wheat (Triticum aestivum, TRZAW), barley (Hordeunm vulgare, HORVX) and oilseed rape (Brassica napus, BRSNS).
Tables 15 and 16 relate to pre-emergence and PPI tests respectively on warm season species. Table 17 relates to pre-emergence tests on cool season species.

[3] = weed, PPI application, 100 g/ha
[4] = weed, PPI application, 300 g/ha
[5] = weed, PPI application, 900 g/ha

SMILES	Pre-emergence activity (GR80) SORHA [1] [g/ha]	Pre-emergence activity GR80, POLCO (POLCO (wild buckwheat))	PPI activity GR80, DIGSA (DIGSA (large crabgrass)) [g/ha]	PPI activity GR80, SASKR (SASKR (russian thistle)) [g/ha]	Percent inhibition DIGSA (DIGSA (large crabgrass); PPI application, 30 g/ha) [%]	Percent inhibition DIGSA (DIGSA (large crabgrass); PPI application, 100 g/ha) [%]	Percent inhibition DIGSA (DIGSA (large crabgrass); PPI application, 300 g/ha) [%]	Percent inhibition DIGSA (DIGSA (large crabgrass); PPI application, 900 g/ha) [%]	Percent inhibition SASKR (SASKR (russian thistle); weed, PPI application, 30 g/ha) [%]	Percent inhibition SASKR (SASKR (russian thistle); [3]) [%]	Percent inhibition SASKR (SASKR (russian thistle); [4]) [%]	Percent inhibition SASKR (SASKR (russian thistle); [5]) [%]	Percent inhibition AGRRE ([2]; weed, PPI application, 30 g/ha) [%]	Percent inhibition AGRRE [2, 3] [%]	Percent inhibition AGRRE [2, 4] [%]	Percent inhibition AGRRE [2, 5] [%]	Percent inhibition HORVX (barley (HORVX); 30 g/ha) [%]	Percent inhibition HORVX (barley (HORVX); 100 g/ha) [%]	Percent inhibition HORVX (barley (HORVX); 300 g/ha) [%]	Percent inhibition HORVX (barley (HORVX); 900 g/ha) [%]	further results
C=C(Br)CC(F)(F)S(=O)(=O)c1ncn(C(=O)N(CC)CC)n1 [Example 19]	100	[empty]	30	30																	inhibition at 30 g/ha (DIGSA (large crabgrass); Digitaria sanguinalis, PPI application, 30 g/ha, read-out: Percent inhibition DIGSA): 40%; inhibition at 100 g/ha (DIGSA (large crabgrass); Digitaria sanguinalis, PPI application, 100 g/ha, read-out: Percent inhibition DIGSA): 90%; inhibition at 300 g/ha (DIGSA (large crabgrass); Digitaria sanguinalis, PPI application, 300 g/ha, read-out: Percent inhibition DIGSA): 90%; inhibition at 900 g/ha (DIGSA (large crabgrass); Digitaria sanguinalis, PPI application, 900 g/ha, read-out: Percent inhibition DIGSA): 99%; inhibition at 10 g/ha (SASKR (russian thistle); Salsola kali, weed, PPI application, 10 g/ha, read-out: Percent inhibition SASKR): 0%; inhibition at 30 g/ha (SASKR (russian thistle); Salsola kali, weed, PPI application, 30 g/ha, read-out: Percent inhibition SASKR): 0%; inhibition at 100 g/ha (SASKR (russian thistle); Salsola kali, weed, PPI application, 100 g/ha, read-out: Percent inhibition SASKR): 0%; inhibition at 300 g/ha (SASKR (russian thistle); Salsola kali, weed, PPI application, 300 g/ha, read-out: Percent inhibition SASKR): 60%; inhibition at 900 g/ha (SASKR (russian thistle); Salsola kali, weed, PPI application, 900 g/ha, read-out: Percent inhibition SASKR): 95%; inhibition at 10 g/ha ([2]; Elymus repens, weed, PPI application, 10 g/ha, read-out: Percent inhibition AGRRE): 0%; inhibition at 30 g/ha ([2]; Elymus repens, weed, PPI application, 30 g/ha, read-out: Percent inhibition AGRRE): 0%; inhibition at 100 g/ha ([2]; Elymus repens, weed, PPI application, 100 g/ha, read-out: Percent inhibition AGRRE): 10%; inhibition at 300 g/ha ([2]; Elymus repens, weed, PPI application, 300 g/ha, read-out: Percent inhibition AGRRE): 20%; inhibition at 900 g/ha ([2]; Elymus repens, weed, PPI application, 900 g/ha, read-out: Percent inhibition AGRRE): 80%; PPI activity GR80, AGRRE [2]: 100 g/ha; inhibition at 10 g/ha (barley (HORVX); Hordeum vulgare, 10 g/ha, read-out: Percent inhibition HORVX): 0%; inhibition at 30 g/ha (barley (HORVX); Hordeum vulgare, 30 g/ha, read-out: Percent inhibition HORVX): 0%; inhibition at 100 g/ha (barley (HORVX); Hordeum vulgare, 100 g/ha, read-out: Percent inhibition HORVX): 20%; inhibition at 300 g/ha (barley (HORVX); Hordeum vulgare, 300 g/ha, read-out: Percent inhibition HORVX): 20%; inhibition at 900 g/ha (barley (HORVX); Hordeum vulgare, 900 g/ha, read-out: Percent inhibition HORVX): 45%
C=C(CC(F)(F)S(=O)(=O)c1ncn(C(=O)N(CC)CC)n1)C[Si](C)(C)C [Example 20]	300	* (activity observed, at least at highest rate, but <80% inhibition)	100	300	80	90	100	99	0	40	0	100	10	65	40	80	0	0	10	30	Percent inhibition DIGSA (DIGSA (large crabgrass); PPI application, 10 g/ha): 0%; Percent inhibition SASKR (SASKR (russian thistle); weed, PPI application, 10 g/ha): 0%; PPI activity GR80, AGRRE [2]: 300 g/ha; Percent inhibition AGRRE ([2]; weed, PPI application, 10 g/ha): 0%; Percent inhibition HORVX (barley (HORVX); 10 g/ha): 0%
CCN(CC)C(=O)n1cnc(S(=O)(=O)C(F)(F)C(F)F)n1 [Example 16]	100	[empty]	10	30	100	90	100	100	90	80	80	100	0	0	20	70	0	10	25	20	Percent inhibition DIGSA (DIGSA (large crabgrass); PPI application, 10 g/ha): 70%; Percent inhibition SASKR (SASKR (russian thistle); weed, PPI application, 10 g/ha): 65%; PPI activity GR80, AGRRE [2]: 300 g/ha; Percent inhibition AGRRE ([2]; weed, PPI application, 10 g/ha): 0%; Percent inhibition HORVX (barley (HORVX); 10 g/ha): 0%
CCN(CC)C(=O)n1cnc(S(=O)(=O)C(F)(F)C(F)(F)Br)n1 [Example 4]	30	300 g/ha			85	90	100	100	75	90	99	100	50	70	80	90	0	0	50	90	
CCN(CC)C(=O)n1cnc(S(=O)(=O)C(F)(F)SCC(=O)OC)n1 [Example 11]	300	[empty]	300	100	0	70	90	100	20		30	65	0	0	0	0	0	0	0	10	Percent inhibition DIGSA (DIGSA (large crabgrass); PPI application, 10 g/ha): 0%; Percent inhibition SASKR (SASKR (russian thistle); weed, PPI application, 10 g/ha): 0%; PPI activity GR80, AGRRE [2]: * (activity observed, at least at highest rate, but <80% inhibition); Percent inhibition AGRRE ([2]; weed, PPI application, 10 g/ha): 0%; Percent inhibition HORVX (barley (HORVX); 10 g/ha): 0%
CCN(CC)C(=O)n1cnc(S(=O)(=O)C(F)(F)SCc2ccccc2)n1 [Example 10]	100	[empty]			0	90	85	100	20	90	100	100	0	0	0	50	0	0	0	20	Percent inhibition DIGSA (DIGSA (large crabgrass); PPI application, 10 g/ha): 0%; Percent inhibition SASKR (SASKR (russian thistle); weed, PPI application, 10 g/ha): 10%; Percent inhibition AGRRE ([2]; weed, PPI application, 10 g/ha): 0%; Percent inhibition HORVX (barley (HORVX); 10 g/ha): 0%
CCN(CC)C(=O)n1cnc(S(=O)(=O)C(F)(F)Cl)n1 [Example 3]	100	[empty]			70	100	100	100	80	80	100	100	20	50	80	95	0	0	10	80	
